Data from patent US20240317736A1, “DEUTERATED DERIVATIVE AS ATX INHIBITOR, AND APPLICATION THEREOF” (Xizang Haisco Pharmaceutical Co., Ltd., priority 2020, published 2024).
Like-named read-outs stand apart in the source and are kept apart here.

Key:
[1] = Pharmacokinetic test in rats; assay type: in vivo; details: male, SD, rat, plasma; for Cmax: read-out: C0 or Cmax; for bioavailability: PO 5 mg/kg vs IV 1 mg/kg
Procedure: Test objective: test compounds were given to SD rats via single-dose intravenous and intragastric administration, the concentrations of the test compounds in plasma of rats were measured, and the pharmacokinetic characteristics and bioavailability of test compounds in rats were evaluated.
Test animals: male SD rats, about 220 g, 6-8 weeks old, six rats/compound, purchased from Chengdu Ddossy Experimental Animals Co., Ltd.
Test method: on the day of the test, 6 SD rats were randomly grouped according to their body weights. The rats were fasted with water available for 12-14 h one day before the administration, and were fed 4 h after the administration. The administration was performed according to Table 5.
Before and after the administration, 0.1 mL of blood was taken from the orbits of the rats under isoflurane anaesthesia, and placed in an EDTAK2 centrifuge tube. Centrifugation was performed at 5000 rpm at 4° C. for 10 min, and plasma was collected.
Time points for sample collection in group G1 comprise 0 min, 5 min, 15 min, 30 min, 1 h, 2 h, 4 h, 6 h, 8 h and 24 h.
Time points for sample collection in group G2 comprise 0 min, 15 min, 30 min, 1 h, 2 h, 4 h, 6 h, 8 h and 24 h.
30 μL of each of plasma samples, standard curve samples and quality control samples was taken, and 200 μL of acetonitrile solution containing an internal standard was added, and the resulting mixture was homogeneously mixed by vortex and centrifuged at 4° C. at 12000 rpm for 10 min. 170 μL of the supernatant was taken to a 96-well plate, and LC-MS/MS analysis was performed, wherein the sample size was 2 μL.
The main pharmacokinetic parameters were analyzed by a non-compartmental model using WinNonlin 8.0 software.

[2] = target: T1, autocrine motility factor (Homo sapiens, UniProt Q13822); experiment: Inhibition of LPA formation in mixed ex vivo human plasma; assay type: biochemical; details: 37° C., 2 h
T1 construct: Whole blood was anticoagulated with heparin and centrifuged, and then plasma was collected; from tissue; host or cells: pooled human plasma (heparin-anticoagulated whole blood)
Procedure: Autocrine motility factor is a phosphodiesterase in plasma that converts lysophosphatidylcholine (LPC) to lysophosphatidic acid (LPA). Therefore, the formation of LPA can be used to evaluate the potency of an autocrine motility factor inhibitor. The potency of the compound in mixed ex vivo human plasma was evaluated.
Whole blood was anticoagulated with heparin and centrifuged, and then plasma was collected. 5 μL of gradient-diluted test compounds or DMSO was added to 95 μL of plasma and incubated at 37° C. for 2 h. After that, a stop buffer (40 mM disodium hydrogen phosphate buffer, containing 30 mM of citric acid, pH=4) was added. LPA in plasma was detected by LC-MSMS before and after incubation. In order to determine the concentration of LPA 18:2 or LPA 20:4 in the plasma in study, calibration standard substances at 20000 ng/mL, 10000 ng/mL, 5000 ng/ml, 2000 ng/ml, 1000 ng/mL, 500 ng/mL, 200 ng/ml, 100 ng/mL, 50 ng/ml, 20 ng/mL and 10 ng/ml for LPA 18:2 or LPA 20:4 were prepared by performing serial dilution in butanol. 3 μL of calibration standard solution was added to 27.0 μL of blank plasmas in each 1.5 mL microcentrifuge tube to produce 1× calibration standard substances. 30.0 μL of standard substances or plasma in study was added to each 1.5 mL microcentrifuge tube. 200 μL of butanol (containing 25.0 ng/mL LPA 17:0 for internal control) was added to each 1.5 mL microcentrifuge tube containing the plasma in study or calibration standard substance. Vortex oscillation was performed for 1 min, and centrifugation was performed at 10000 rpm for 10 min. 180 μL of the supernatant was transferred to a 96-well plate, and LC/MS/MS was used together with the standard substance to quantify the concentration of LPA 18:2 in the plasma. In short, 8 μL of the solution was injected, and LC-MS/MS analysis using an ACQUITY UPLC BEH C18 column (2.1×50 mm, 1.7 μm) was performed, wherein mobile phase A [20 mM NH4OAC aqueous solution (0.1% FA)] and mobile phase B [5 mM NH4OAC aqueous solution/0.2% FA in ACN=5:95] were used. The parameters of a mass spectrometer for LPA 18:2 were optimized by means of deprotonation of molecular ions. For LPA 18:2 at m/z 433.2([M−H]−), LPA 20:4 at 457.2, and LPA 18:2 and LPA 20:4 both at m/z 152.8, abundant product ions were obtained. Quantitative data were obtained in a multiple reaction monitoring (MRM) negative electrospray ionization mode.
The inhibition rates of compounds at different concentrations on LPA formation were determined by comparing the changes of LPA levels in incubated and unincubated plasma. The IC50 of the compounds was calculated as a calculation inhibition rate, and the relative concentration at each well=the concentration at each well−the average concentration at baseline.
Inhibition rate %=(average relative concentration at control well−average relative concentration at test well)/average relative concentration at control well×100%. The curve was plotted with the inhibition rates as a y axis and the compound concentrations as an x axis, and fitting was performed by GraphPad Prism7.0 using log (inhibitor) and normalized response (variable slope).

[3] = LPA 18:2 by LC-MS/MS, read-out: IC50 for inhibiting LPA formation (18:2)
[4] = LPA 20:4 by LC-MS/MS, read-out: IC50 for inhibiting LPA formation (20:4)

| AUC ([1]; IV 1 mg/kg) | half-life ([1]; IV 1 mg/kg) | Cmax ([1]; IV 1 mg/kg) | AUC ([1]; PO 5 mg/kg) | Tmax ([1]; PO 5 mg/kg) | half-life ([1]; PO 5 mg/kg) | bioavailability [1] | Cmax ([1]; PO 5 mg/kg) | IC50 [2, 3] | IC50 [2, 4] | SMILES |
| --- | --- | --- | --- | --- | --- | --- | --- | --- | --- | --- |
| 1060 ± 124 ng·h/mL | 2.6 ± 0.61 h | 967 ± 106 ng/mL | 1170 ± 46 ng·h/mL | 4 ± 2 h | 6.4 ± 2.4 h | 22.1 ± 0.87% | 181 ± 10 ng/mL | 46 nM | 48.5 nM | [2H]C([2H])([2H])C([2H])([2H])c1nn2cc(F)c(N3CCN(CC(=O)N4CC(O)C4)CC3)cc2c1N(C)c1nc(-c2ccc(F)cc2)c(C#N)s1 [Compound 1, 2-((2-(ethyl-d5)-6-fluoro-5-(4-(2-(3-hydroxyazetidin-1-yl)-2-oxoethyl)piperazin-1-yl)pyrazolo[1,5-a]pyridin-3-yl)(methyl)amino)-4-(4-fluorophenyl)thiazole-5-carbonitrile] |
| 1330 ± 83 ng·h/mL | 2.4 ± 0.35 h | 1030 ± 62 ng/mL | 2570 ± 449 ng·h/mL | 4.33 ± 2.9 h | 2.87 ± 0.15 h | 38.6 ± 6.7% | 297 ± 105 ng/mL | 52 nM | 55.3 nM | [2H]C([2H])([2H])N(c1nc(-c2ccc(F)cc2)c(C#N)s1)c1c(C([2H])([2H])C([2H])([2H])[2H])nn2cc(F)c(N3CCN(CC(=O)N4CC(O)C4)CC3)cc12 [Compound 2, 2-((2-(ethyl-d5)-6-fluoro-5-(4-(2-(3-hydroxyazetidin-1-yl)-2-oxoethyl)piperazin-1-yl)pyrazolo[1,5-a]pyridin-3-yl)(methyl-d3)amino)-4-(4-fluorophenyl)thiazole-5-carbonitrile] |
|  |  |  |  |  |  |  |  | 51.8 nM | 54.8 nM | [2H]C1([2H])N(CC(=O)N2CC(O)C2)C([2H])([2H])C([2H])([2H])N(c2cc3c(N(C)c4nc(-c5ccc(F)cc5)c(C#N)s4)c(CC)nn3cc2F)C1([2H])[2H] [Compound 4, 2-((2-ethyl-6-fluoro-5-(4-(2-(3-hydroxyazetidin-1-yl)-2-oxoethyl)piperazin-1-yl-2,2,3,3,5,5,6,6-d8)pyrazolo[1,5-a]pyridin-3-yl)(methyl)amino)-4-(4-fluorophenyl)thiazole-5-carbonitrile] |
| 943 ± 109 ng·h/mL | 1.93 ± 0.072 h | 748 ± 187 ng/mL | 2420 ± 860 ng·h/mL | 1.17 ± 0.76 h | 2.43 ± 0.33 h | 51.3 ± 18% | 399 ± 137 ng/mL |  |  | [2H]c1c([2H])c(-c2nc(N(C)c3c(CC)nn4cc(F)c(N5CCN(CC(=O)N6CC(O)C6)CC5)cc34)sc2C#N)c([2H])c([2H])c1F [Compound 9, 2-((2-ethyl-6-fluoro-5-(4-(2-(3-hydroxyazetidin-1-yl)-2-oxoethyl)piperazin-1-yl)pyrazolo[1,5-a]pyridin-3-yl)(methyl)amino)-4-(4-fluorophenyl-2,3,5,6-d4)thiazole-5-carbonitrile] |
| 1050 ± 84 ng·h/mL | 2.05 ± 0.29 h | 813 ± 85 ng/mL | 1960 ± 858 ng·h/mL | 2.83 ± 2 h | 2.63 ± 0.071 h | 37.3 ± 6% | 234 ± 136 ng/mL |  |  | [2H]c1c([2H])c(-c2nc(N(c3c(CC)nn4cc(F)c(N5CCN(CC(=O)N6CC(O)C6)CC5)cc34)C([2H])([2H])[2H])sc2C#N)c([2H])c([2H])c1F [Compound 10, 2-((2-ethyl-6-fluoro-5-(4-(2-(3-hydroxyazetidin-1-yl)-2-oxoethyl)piperazin-1-yl)pyrazolo[1,5-a]pyridin-3-yl)(methyl-d3)amino)-4-(4-fluorophenyl-2,3,5,6-d4)thiazole-5-carbonitrile] |
